These are literature values, as cited in article PMC4258517 (Antiviral research, 2014).

Usually IC50 stands for the concentration needed to halve the response being measured.

The test system of one data set is BKV. The settings on record: HK2 cells, 15 μM; ref Wright et al., 2009.
The subject of another data set is SV40. To be noted: 100 μM; ref Wright et al., 2009.
The next data set concerns patients with PML. To be noted: trial prematurely terminated, ref Clifford et al., 2013.
The test system of data set [1] is SV40 large T antigen ATPase. The settings on record: ref Seguin et al., 2012b.
For data set [2] the following is noted: read-out: MTS assay IC50; cytotoxicity; ref Seguin et al., 2012b. For orientation: Tetrazolium dyes change colour on reduction, which living cells bring about.

As for `CC1=C(C(=O)OCc2ccccc2)C(c2ccc(-c3ccccc3)cc2)NC(=O)N1CCCCCC(=O)O` (stereo not shown) [MAL2-11B], the “reduction of BKV viral load” value in the data set on BKV was “one log reduction”. Moreover, the “reduction in SV40 DNA replication” value with SV40 is reported as “fivefold reduction”. For the compound `OC(c1cc(C(F)(F)F)nc2c(C(F)(F)F)cccc12)C1CCCCN1` (stereo not shown) [Mefloquine], the clinical trial outcome in the data set with patients with PML is “lack of efficacy”. With `Oc1c(Cl)cc(Cl)cc1Sc1cc(Cl)cc(Cl)c1O` [bithionol], the “mechanism of inhibition on SV40 protein” value in data set [1] is on record as “competitive”. Besides, the IC50 in data set [2] was 68 µM. `Oc1c(Cl)cc(Cl)c(Cl)c1Cc1c(O)c(Cl)cc(Cl)c1Cl` [hexachlorophene]: the “mechanism of inhibition on SV40 protein” value in data set [1] was “competitive”. For the same compound, the IC50 in data set [2] was 55 µM.
